Experiments:
[1] = Concentration required to inhibit the growth of chang liver cells.; type: functional; conditions: Homo sapiens
[2] = test system: L1210; assay: Concentration required to inhibit the growth of L1210 cells.; type: functional, cell-based; conditions: Mus musculus
[3] = test system: Mus musculus; assay: Incidence of disease (mouse type II collagen) was scored as the percentage of animals within each experimental group that exhibited joint or limb inflammation on day 23 at intraperitoneal dose of 0.024 mg/kg (deaths observed at 1.5 mg/kg); type: functional
[4] = test system: Mus musculus; assay: Incidence of disease (mouse type II collagen) was scored as the percentage of animals within each experimental group that exhibited joint or limb inflammation on day 23 at intraperitoneal dose of 0.047 mg/kg (deaths observed at 1.5 mg/kg); type: functional
[5] = test system: Mus musculus; assay: Incidence of disease (mouse type II collagen) was scored as the percentage of animals within each experimental group that exhibited joint or limb inflammation on day 23 at intraperitoneal dose of 0.094 mg/kg (deaths observed at 1.5 mg/kg); type: functional
[6] = test system: Mus musculus; assay: Incidence of disease (mouse type II collagen) was scored as the percentage of animals within each experimental group that exhibited joint or limb inflammation on day 23 at intraperitoneal dose of 0.19 mg/kg (deaths observed at 1.5 mg/kg); type: functional
[7] = test system: Mus musculus; assay: Incidence of disease (mouse type II collagen) was scored as the percentage of animals within each experimental group that exhibited joint or limb inflammation on day 23 at intraperitoneal dose of 0.75 mg/kg (deaths observed at 1.5 mg/kg); type: functional
[8] = test system: Mus musculus; assay: Incidence of disease (mouse type II collagen) was scored as the percentage of animals within each experimental group that exhibited joint or limb inflammation on day 37 at intraperitoneal dose of 0.024 mg/kg (deaths observed at 1.5 mg/kg); type: functional
[9] = test system: Mus musculus; assay: Incidence of disease (mouse type II collagen) was scored as the percentage of animals within each experimental group that exhibited joint or limb inflammation on day 37 at intraperitoneal dose of 0.19 mg/kg (deaths observed at 1.5 mg/kg); type: functional
[10] = test system: Mus musculus; assay: Incidence of disease (mouse type II collagen) was scored as the percentage of animals within each experimental group that exhibited joint or limb inflammation on day 30 at intraperitoneal dose of 0.024 mg/kg (deaths observed at 1.5 mg/kg); type: functional
[11] = test system: Mus musculus; assay: Incidence of disease (mouse type II collagen) was scored as the percentage of animals within each experimental group that exhibited joint or limb inflammation on day 30 at intraperitoneal dose of 0.047 mg/kg (deaths observed at 1.5 mg/kg); type: functional
[12] = test system: Mus musculus; assay: Incidence of disease (mouse type II collagen) was scored as the percentage of animals within each experimental group that exhibited joint or limb inflammation on day 30 at intraperitoneal dose of 0.094 mg/kg (deaths observed at 1.5 mg/kg); type: functional
[13] = test system: Mus musculus; assay: Incidence of disease (mouse type II collagen) was scored as the percentage of animals within each experimental group that exhibited joint or limb inflammation on day 44 at intraperitoneal dose of 0.19 mg/kg (deaths observed at 1.5 mg/kg); type: functional
[14] = test system: Mus musculus; assay: Incidence of disease (mouse type II collagen) was scored as the percentage of animals within each experimental group that exhibited joint or limb inflammation on day 44 at intraperitoneal dose of 0.75 mg/kg (deaths observed at 1.5 mg/kg); type: functional
[15] = test system: Mus musculus; assay: Incidence of disease (mouse type II collagen) was scored as the percentage of animals within each experimental group that exhibited joint or limb inflammation on day 44 at intraperitoneal dose of 0.047 mg/kg (deaths observed at 1.5 mg/kg); type: functional
[16] = test system: Mus musculus; assay: Incidence of disease (mouse type II collagen) was scored as the percentage of animals within each experimental group that exhibited joint or limb inflammation on day 30 at intraperitoneal dose of 0.19 mg/kg (deaths observed at 1.5 mg/kg); type: functional
[17] = test system: Mus musculus; assay: Incidence of disease (mouse type II collagen) was scored as the percentage of animals within each experimental group that exhibited joint or limb inflammation on day 30 at intraperitoneal dose of 0.38 mg/kg (deaths observed at 1.5 mg/kg); type: functional
[18] = test system: Mus musculus; assay: Incidence of disease (mouse type II collagen) was scored as the percentage of animals within each experimental group that exhibited joint or limb inflammation on day 30 at intraperitoneal dose of 0.75 mg/kg (deaths observed at 1.5 mg/kg); type: functional
[19] = test system: Mus musculus; assay: Tested for antiinflammatory activity on mouse type II collagen arthritis as Paw swelling of all animals in each group on day 23 at intraperitoneal dose of 0.024 mg/kg; type: functional
[20] = test system: Mus musculus; assay: Tested for antiinflammatory activity on mouse type II collagen arthritis as Paw swelling of all animals in each group on day 23 at intraperitoneal dose of 0.047 mg/kg; type: functional
[21] = test system: Mus musculus; assay: Tested for antiinflammatory activity on mouse type II collagen arthritis as Paw swelling of all animals in each group on day 23 at intraperitoneal dose of 0.19 mg/kg; type: functional
[22] = test system: Mus musculus; assay: Tested for antiinflammatory activity on mouse type II collagen arthritis as Paw swelling of all animals in each group on day 23 at intraperitoneal dose of 0.75 mg/kg; type: functional
[23] = test system: Mus musculus; assay: Tested for antiinflammatory activity on mouse type II collagen arthritis as Paw swelling of all animals in each group on day 30 at intraperitoneal dose of 0.024 mg/kg; type: functional
[24] = test system: Mus musculus; assay: Tested for antiinflammatory activity on mouse type II collagen arthritis as Paw swelling of all animals in each group on day 30 at intraperitoneal dose of 0.047 mg/kg; type: functional
[25] = test system: Mus musculus; assay: Tested for antiinflammatory activity on mouse type II collagen arthritis as Paw swelling of all animals in each group on day 30 at intraperitoneal dose of 0.094 mg/kg; type: functional
[26] = test system: Mus musculus; assay: Tested for antiinflammatory activity on mouse type II collagen arthritis as Paw swelling of all animals in each group on day 30 at intraperitoneal dose of 0.38 mg/kg; type: functional
[27] = test system: Mus musculus; assay: Tested for antiinflammatory activity on mouse type II collagen arthritis as Paw swelling of all animals in each group on day 44 at intraperitoneal dose of 0.024 mg/kg; type: functional
[28] = test system: Mus musculus; assay: Tested for antiinflammatory activity on mouse type II collagen arthritis as Paw swelling of all animals in each group on day 44 at intraperitoneal dose of 0.047 mg/kg; type: functional
[29] = test system: Mus musculus; assay: Tested for antiinflammatory activity on mouse type II collagen arthritis as Paw swelling of all animals in each group on day 44 at intraperitoneal dose of 0.094 mg/kg; type: functional
[30] = test system: Mus musculus; assay: Tested for antiinflammatory activity on mouse type II collagen arthritis as Paw swelling of all animals in each group on day 44 at intraperitoneal dose of 0.19 mg/kg; type: functional
[31] = test system: Mus musculus; assay: Tested for antiinflammatory activity on mouse type II collagen arthritis as Paw swelling of all animals in each group on day 37 at intraperitoneal dose of 0.047 mg/kg; type: functional
[32] = test system: Mus musculus; assay: Tested for antiinflammatory activity on mouse type II collagen arthritis as Paw swelling of all animals in each group on day 37 at intraperitoneal dose of 0.75 mg/kg; type: functional
[33] = test system: Mus musculus; assay: Tested for antiinflammatory activity on mouse type II collagen arthritis as Paw swelling of all animals in each group on day 23 at intraperitoneal dose of 0.38 mg/kg; type: functional

CCc1c(CN(C)c2ccc(C(=O)NC(CCC(=O)O)C(=O)O)cc2)cnc2nc(N)nc(N)c12 (stereo not drawn)
IC50 [1]: 89 nM | IC50 [2]: 1 nM | Animals [3]: 0% | Animals [4]: 0% | Animals [5]: 0% | Animals [6]: 0% | Animals [7]: 0% | Animals [8]: 0% | Animals [9]: 12% | Animals [10]: 0% | Animals [11]: 12% | Animals [12]: 12% | Animals [13]: 12% | Animals [14]: 14% | Animals [15]: 88% | Animals [16]: 12% | Animals [17]: 0% | Animals [18]: 14% | Paw swelling [19]: 2.12 mm | Paw swelling [20]: 2.1 mm | Paw swelling [21]: 2.11 mm | Paw swelling [22]: 2.14 mm | Paw swelling [23]: 2.22 mm | Paw swelling [24]: 2.21 mm | Paw swelling [25]: 2.14 mm | Paw swelling [26]: 2.16 mm | Paw swelling [27]: 2.23 mm | Paw swelling [28]: 2.57 mm | Paw swelling [29]: 2.27 mm | Paw swelling [30]: 2.2 mm | Paw swelling [31]: 2.33 mm | Paw swelling [32]: 2.2 mm | Paw swelling [33]: 2.15 mm
